From patent US12110279B2, “Triazolones, tetrazolones, and imidazolones, or their salts, and pharmaceutical compositions comprising the same” (Yuhan Corporation, priority 2021, dated 2024)
Counter-ions that a name gives are not always drawn. Like-named read-outs stand apart in the source and are kept apart here.

Tests used:
Assay type in all cases: biochemical
[1] = target: T1, recombinant human DAO (diamine oxidase) (Homo sapiens, UniProt P19801); assay: Amplex Red HRP-coupled amine oxidase activity evaluation, recombinant human DAO
T1 construct: purchased R&D systems
T1 sequence (P19801 20-751): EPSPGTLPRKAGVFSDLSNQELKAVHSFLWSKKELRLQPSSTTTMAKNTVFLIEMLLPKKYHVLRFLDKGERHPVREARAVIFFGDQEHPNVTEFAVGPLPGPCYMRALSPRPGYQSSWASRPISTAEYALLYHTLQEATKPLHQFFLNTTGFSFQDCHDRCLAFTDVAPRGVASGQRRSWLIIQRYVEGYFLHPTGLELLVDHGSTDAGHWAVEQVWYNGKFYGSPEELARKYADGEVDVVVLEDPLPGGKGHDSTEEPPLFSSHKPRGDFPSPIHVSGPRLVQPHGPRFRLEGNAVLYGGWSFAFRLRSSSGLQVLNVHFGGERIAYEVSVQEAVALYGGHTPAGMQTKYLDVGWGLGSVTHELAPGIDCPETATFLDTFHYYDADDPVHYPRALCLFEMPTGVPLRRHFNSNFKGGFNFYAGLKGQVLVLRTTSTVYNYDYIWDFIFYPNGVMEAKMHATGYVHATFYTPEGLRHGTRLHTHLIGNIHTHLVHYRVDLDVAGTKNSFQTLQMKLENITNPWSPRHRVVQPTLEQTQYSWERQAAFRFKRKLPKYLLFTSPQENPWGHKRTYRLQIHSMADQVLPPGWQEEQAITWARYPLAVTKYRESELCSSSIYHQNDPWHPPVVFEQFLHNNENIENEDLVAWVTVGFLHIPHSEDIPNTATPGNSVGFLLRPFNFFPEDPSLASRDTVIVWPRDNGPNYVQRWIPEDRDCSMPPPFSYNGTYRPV
Protocol: [The source words this procedure for another target and says it was used here with some conditions changed.] (§1) The compounds according to the present technology were evaluated in terms of activity on recombinant human VAP-1 (R&D systems) by measuring the level of hydrogen peroxide in horseradish peroxidase (HRP)-coupled reaction using Amplex Red Hydrogen Peroxide Assay Kit (Molecular Probes, Invitrogen, USA). The experiment was carried out at room temperature using benzylamine as a substrate. In the HRP-coupled reaction, hydrogen peroxide oxidation of 10-acetyl-3,7-dihydroxyphenoxazine (Amplex Red reagent) produces resorufin, which is a highly fluorescent compound. Briefly, the test compound was dissolved in dimethyl sulfoxide (DMSO) at a concentration of 20 mM. The dose-response assessment was made by 1:3 serial dilution in DMSO, thereby creating an 8-point curve. The concentration of the upper part was controlled according to the efficacy of the compounds, followed by dilution with a reaction buffer solution to obtain a final DMSO concentration of less than 1%. To each well of a 96 black well plate, human VAP-1 purified in 50 mM sodium phosphate buffer solution (pH7.4) was added. The test compounds dissolved in DMSO were incubated with the human VAP-1 enzymes at 37° C. for 30 minutes. After 30-minute incubation, each well was added with a reaction mixture containing 200 uM Amplex Red reagent prepared from 50 mM sodium phosphate buffer solution (pH 7.4), 1 mM benzylamine, and 1 U/mL HRP. Fluorescence intensity was measured at several time points during 1-2 hours using a microplate reader (Flexstation3, Molecular Devices) under the wavelength condition exciting at 544 nm and reading the emission at 590 nm. The inhibitory effect of the compounds was measured as a decrease (%) in the signal rate as compared to the control group without any inhibitor (only diluted DMSO). Data was fixed to a logistic model with four variables and IC50 value was calculated using GraphPad Prism program.

[2] = target: T2, recombinant human MAO-A (monoamine oxidase-A) (Homo sapiens, UniProt P21397); assay: Amplex Red HRP-coupled amine oxidase activity evaluation, recombinant human MAO-A; conditions: substrate 0.5 mM tyramine; read-out: Inhibitory Activity (IC50, nM) MAO-A
T2 construct: purchased Sigma-Aldrich
T2 sequence (P21397 1-527): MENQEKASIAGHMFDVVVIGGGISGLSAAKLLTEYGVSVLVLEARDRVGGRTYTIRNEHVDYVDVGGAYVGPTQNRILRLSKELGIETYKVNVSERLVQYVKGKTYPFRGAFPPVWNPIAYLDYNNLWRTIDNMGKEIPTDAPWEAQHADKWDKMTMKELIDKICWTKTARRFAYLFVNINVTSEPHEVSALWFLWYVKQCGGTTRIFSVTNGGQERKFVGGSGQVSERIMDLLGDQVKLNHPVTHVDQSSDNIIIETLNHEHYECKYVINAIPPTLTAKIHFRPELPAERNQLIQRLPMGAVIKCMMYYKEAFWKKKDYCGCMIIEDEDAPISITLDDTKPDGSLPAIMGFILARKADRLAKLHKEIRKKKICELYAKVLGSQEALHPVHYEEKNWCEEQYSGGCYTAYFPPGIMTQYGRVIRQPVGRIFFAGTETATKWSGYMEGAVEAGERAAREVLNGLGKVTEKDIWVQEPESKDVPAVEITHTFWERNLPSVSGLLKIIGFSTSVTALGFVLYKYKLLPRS
Protocol: [The source words this procedure for another target and says it was used here with some conditions changed.] as §1

[3] = target: T3, recombinant human VAP-1 (Homo sapiens, UniProt Q16853); assay: Amplex Red HRP-coupled amine oxidase activity evaluation, recombinant human VAP-1; conditions: substrate 1 mM benzylamine; 30 min preincubation at 37° C.; read-out: Inhibitory Activity (IC50, nM) human VAP-1
T3 construct: purchased R&D systems
T3 sequence (Q16853 1-763): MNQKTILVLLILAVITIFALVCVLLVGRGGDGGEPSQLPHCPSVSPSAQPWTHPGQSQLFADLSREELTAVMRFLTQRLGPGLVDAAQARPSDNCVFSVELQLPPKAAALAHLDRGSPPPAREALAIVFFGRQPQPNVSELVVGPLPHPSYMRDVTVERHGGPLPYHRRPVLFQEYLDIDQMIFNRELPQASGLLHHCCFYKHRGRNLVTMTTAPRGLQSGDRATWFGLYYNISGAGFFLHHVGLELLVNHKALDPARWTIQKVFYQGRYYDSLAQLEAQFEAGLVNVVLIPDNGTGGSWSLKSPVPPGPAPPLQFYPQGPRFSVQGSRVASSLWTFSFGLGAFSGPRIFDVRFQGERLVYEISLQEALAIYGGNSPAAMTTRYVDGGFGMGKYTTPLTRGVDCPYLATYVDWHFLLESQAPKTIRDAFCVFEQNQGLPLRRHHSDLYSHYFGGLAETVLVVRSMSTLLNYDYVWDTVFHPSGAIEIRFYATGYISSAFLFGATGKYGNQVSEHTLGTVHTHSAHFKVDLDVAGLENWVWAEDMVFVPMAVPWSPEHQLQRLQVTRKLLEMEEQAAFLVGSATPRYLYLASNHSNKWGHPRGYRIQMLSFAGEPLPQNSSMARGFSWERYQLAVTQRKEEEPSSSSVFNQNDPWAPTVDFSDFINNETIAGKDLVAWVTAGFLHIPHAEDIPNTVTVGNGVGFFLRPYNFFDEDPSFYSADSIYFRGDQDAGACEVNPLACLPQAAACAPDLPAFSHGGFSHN
Protocol: as §1

[4] = target: T4, recombinant human MAO-B (monoamine oxidase-B) (Homo sapiens, UniProt P27338); assay: Amplex Red HRP-coupled amine oxidase activity evaluation, recombinant human MAO-B; conditions: substrate 1 mM benzylamine; read-out: Inhibitory Activity (IC50, nM) MAO-B
T4 construct: purchased Sigma-Aldrich
T4 sequence (P27338 1-520): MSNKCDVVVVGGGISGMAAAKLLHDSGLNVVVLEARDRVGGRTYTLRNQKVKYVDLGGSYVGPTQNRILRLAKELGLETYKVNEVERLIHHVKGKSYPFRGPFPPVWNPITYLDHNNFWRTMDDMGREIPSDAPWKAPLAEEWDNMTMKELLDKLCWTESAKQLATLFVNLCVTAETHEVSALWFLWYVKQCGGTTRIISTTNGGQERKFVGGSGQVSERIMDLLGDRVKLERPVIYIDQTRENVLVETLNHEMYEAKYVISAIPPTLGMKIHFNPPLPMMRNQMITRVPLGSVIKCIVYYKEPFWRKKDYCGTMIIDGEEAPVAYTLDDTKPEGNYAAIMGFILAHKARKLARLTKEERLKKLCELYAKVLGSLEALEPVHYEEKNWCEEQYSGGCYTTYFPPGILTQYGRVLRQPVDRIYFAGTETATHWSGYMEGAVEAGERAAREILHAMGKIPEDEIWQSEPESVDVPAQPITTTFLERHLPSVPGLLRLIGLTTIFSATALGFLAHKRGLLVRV
Protocol: [The source words this procedure for another target and says it was used here with some conditions changed.] as §1

[5] = substrate 1 mM putrescine, read-out: Inhibitory Activity (IC50, nM) DAO

Row | Compound | IC50 [1, 5] [nM] | IC50 [2] [nM] | IC50 [3] [nM] | IC50 [4] [nM] | IC50 [1] [nM]
1 | CS(=O)(=O)c1ccc(-c2csc(-n3nnn(CC(CN)=C(F)F)c3=O)c2)cc1 [Example 35, 1-[2-(aminomethyl)-3,3-difluoro-allyl]-4-[4-(4-methylsulfonylphenyl)-2-thienyl]tetrazol-5-one trifluoroacetate] | 32200 | > 100000 | 0.4 | 1430 | –
2 | CCn1cc(-c2ccc(Cn3ccn(CC(CN)=C(F)F)c3=O)s2)ccc1=O [Example 50, 5-[5-[[3-[2-(aminomethyl)-3,3-difluoro-allyl]-2-oxo-imidazol-1-yl]methyl]-2-thienyl]-1-ethyl-pyridin-2-one trifluoroacetate] | 8.3 | > 100000 | > 100 | > 100000 | –
3 | Cc1cc(-c2cccc(Cn3nnn(CC(CN)=C(F)F)c3=O)c2)cc2c1NC(=O)CC2 [Example 31, 6-[3-[[4-[2-(aminomethyl)-3,3-difluoro-allyl]-5-oxo-tetrazol-1-yl]methyl]phenyl]-8-methyl-3,4-dihydro-1H-quinolin-2-one trifluoroacetate] | 127 | 82100 | 0.6 | 9000 | –
4 | Cc1ccc(-c2cc(C)c3c(c2)CCC(=O)N3)nc1-n1nnn(CC(CN)=C(F)F)c1=O [Example 25, 6-[6-[4-[2-(aminomethyl)-3,3-difluoro-allyl]-5-oxo-tetrazol-1-yl]-5-methyl-2-pyridyl]-8-methyl-3,4-dihydro-1H-quinolin-2-one trifluoroacetate] | – | > 100000 | 13 | > 100000 | 1110
5 | CCn1cc(-c2csc(-n3nnn(CC(CN)=C(F)F)c3=O)c2)cn1 [Example 42, 1-[2-(aminomethyl)-3,3-difluoro-allyl]-4-[4-(1-ethylpyrazol-4-yl)-2-thienyl]tetrazol-5-one trifluoroacetate] | 0.6 | > 100000 | 0.4 | 228 | –
6 | CS(=O)(=O)c1ccc(-c2cccc(-n3nnn(CC(CN)=C(F)F)c3=O)c2)cc1 [Example 10, 1-[2-(aminomethyl)-3,3-difluoro-allyl]-4-[3-(4-methylsulfonylphenyl)phenyl]tetrazol-5-one trifluoroacetate] | – | > 100000 | 0.4 | 53200 | 2.2
7 | Cc1cc(-c2ccc(-n3nnn(CC(CN)=C(F)F)c3=O)cc2)cc2c1NC(=O)CC2 [Example 20, 6-[4-[4-[2-(aminomethyl)-3,3-difluoro-allyl]-5-oxo-tetrazol-1-yl]phenyl]-8-methyl-3,4-dihydro-1H-quinolin-2-one trifluoroacetate] | > 100000 | 82600 | 0.4 | 49 | –

Continued, values first:

Row | IC50 [1, 5] [nM] | IC50 [2] [nM] | IC50 [3] [nM] | IC50 [4] [nM] | IC50 [1] [nM] | Compound
8 | 1050 | 63100 | 0.5 | 6830 | – | CN1C(=O)CCc2cc(-c3ccc(Cn4nnn(CC(CN)=C(F)F)c4=O)s3)ccc21 [Example 46, 6-[5-[[4-[2-(aminomethyl)-3,3-difluoro-allyl]-5-oxo-tetrazol-1-yl]methyl]-2-thienyl]-1-methyl-3,4-dihydroquinolin-2-one trifluoroacetate]
9 | 8470 | > 100000 | 1.1 | > 100000 | – | NCC(Cn1nnn(-c2cc(-c3ccc(N4CCNCC4)cc3)cs2)c1=O)=C(F)F [Example 36, 1-[2-(aminomethyl)-3,3-difluoro-allyl]-4-[4-(4-piperazin-1-ylphenyl)-2-thienyl]tetrazol-5-one di-trifluoroacetate]
10 | > 100000 | > 100000 | 2.5 | > 100000 | – | Cc1nn(CC(CN)=C(F)F)c(=O)n1Cc1ccc(-c2ccc3c(c2)OCO3)s1 [Example 6, 2-[2-(aminomethyl)-3,3-difluoro-allyl]-4-[[5-(1,3-benzodioxol-5-yl)-2-thienyl]methyl]-5-methyl-1,2,4-triazol-3-one trifluoroacetate]
11 | 762 | > 100000 | 0.3 | 10000 | – | CCn1cc(-c2ccc(Cn3nnn(CC(CN)=C(F)F)c3=O)s2)ccc1=O [Example 44, 5-[5-[[4-[2-(aminomethyl)-3,3-difluoro-allyl]-5-oxo-tetrazol-1-yl]methyl]-2-thienyl]-1-ethyl-pyridin-2-one trifluoroacatate]
12 | > 100000 | > 100000 | 18 | > 100000 | – | Cc1nn(CC(CN)=C(F)F)c(=O)n1Cc1ccc(-c2ccc(N3CCNCC3)cc2)s1 [Example 3, 2-[2-(aminomethyl)-3,3-difluoro-allyl]-5-methyl-4-[[5-(4-piperazin-1-ylphenyl)-2-thienyl]methyl]-1,2,4-triazol-3-one di-trifluoroacetate]
